The record followed here is PubChem BioAssay (NCI).

Structures are written as SMILES. Where “and” joins values, the source holds several entries; their conditions need not be identical. Equal values may be shown once.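 Protocol summary: plate cells (96-well), add compound at 5 concentrations, incubate 48 h, interpolate endpoints linearly. GI50 = concentration required for 50% inhibition of growth. The concentration for full growth arrest is given as TGI.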 Where a SMILES comes first, the peptide text is derived from it. [ ]: non-standard residue; d: D form. The star is where a group is joined. Bn2Val = CC(C)[C@@H](C(=O)*)N(Cc1ccccc1)Cc1ccccc1; NH(3,4-diMeO-benzyl) = COc1ccc(CN*)cc1OC; NMeV = CN[C@H](C(=O)O)C(C)C

Test systems include OVCAR-5 ovarian; CAKI-1 renal; KM12 colon; SNB-19 CNS; ACHN renal; A549 NSCLC; BT-549 breast; SR leukemia; EKVX NSCLC; SK-OV-3 ovarian; MDA-N; HL-60(TB) leukemia; SF-539 CNS; PC-3 prostate; COLO 205 colon; MALME-3M melanoma; LOX IMVI melanoma; HT29 colon.
Common to all, as to assay: NCI tumour cell line growth inhibition, 48 h

For `CC1=C[C@@H]2[C@@H](CC(CO)=C[C@H]3[C@@H]4C(C)(C)[C@]4(OCC(C)C)[C@H](OCC(C)C)[C@@H](C)[C@]23O)C1=O`, the TGI with OVCAR-5 ovarian was 8.23 µM; in the assay on CAKI-1 renal, 3.69 µM; in the assay with KM12 colon it was over 5.69 µM; with SNB-19 CNS, over 8.32 µM; in the assay on ACHN renal, 3.4 µM; with A549 NSCLC, over 8.32 µM. Moreover, the TGI was 2.65 µM with BT-549 breast; 3.32 µM in the assay with SR leukemia; over 5.64 µM with EKVX NSCLC; over 8.32 µM in the assay with SK-OV-3 ovarian; 3.49 µM in the assay with MDA-N; over 5.52 µM with HL-60(TB) leukemia. The TGI was 2.87 µM with SF-539 CNS; over 4.51 µM in the assay on PC-3 prostate; 1.4 µM in the assay with COLO 205 colon; 2.36 µM in the assay with MALME-3M melanoma; 3.06 µM with LOX IMVI melanoma; 2.87 µM in the assay on HT29 colon.
For the molecule `COc1cccc(Nc2nc(N)nc(N)c2N=O)c1`, the TGI was over 100 µM in the assay with OVCAR-5 ovarian; 55.4 µM in the assay on CAKI-1 renal; over 100 µM with KM12 colon; over 100 µM in the assay with SNB-19 CNS; 89 µM in the assay with ACHN renal; over 100 µM with A549 NSCLC. For the same molecule, the TGI in the assay on BT-549 breast is 96.8 µM; in the assay on SR leukemia it was 45.5 µM; in the assay on EKVX NSCLC it was over 100 µM; in the assay on SK-OV-3 ovarian it was over 100 µM; with MDA-N it was over 100 µM; with HL-60(TB) leukemia, 79 µM. For the same molecule, the TGI was 35.7 µM in the assay on SF-539 CNS; over 100 µM in the assay on PC-3 prostate; 51.9 µM in the assay on COLO 205 colon; over 100 µM with MALME-3M melanoma; 32.6 µM in the assay with LOX IMVI melanoma; 75.3 µM with HT29 colon.
In the case of `COc1ccc(CNC(=O)[C@@H]2CCCN2C(=O)[C@@H]2CCCN2C(=O)[C@H](C(C)C)N(C)C(=O)[C@@H](NC(=O)[C@H](C(C)C)N(Cc2ccccc2)Cc2ccccc2)C(C)C)cc1OC` (Bn2Val-V[NMeV]PP-{NH(3,4-diMeO-benzyl)}), the TGI in the assay with OVCAR-5 ovarian was determined as 34 µM; in the assay on CAKI-1 renal, 38.1 µM; in the assay with KM12 colon, 51.5 µM; with SNB-19 CNS it was 30.7 µM; in the assay with ACHN renal it was 28 µM; in the assay on A549 NSCLC, 38.4 µM. In addition, the TGI in the assay on BT-549 breast was 34.5 µM; with SR leukemia it was over 100 µM; in the assay on EKVX NSCLC, 26.7 µM; in the assay on SK-OV-3 ovarian, 31.4 µM; in the assay on MDA-N it was 30.5 µM; in the assay with HL-60(TB) leukemia it was 6.17 µM. For the same molecule, the TGI with SF-539 CNS came out at 34 µM; with PC-3 prostate, 30.8 µM; in the assay with COLO 205 colon, 38.7 µM; in the assay on MALME-3M melanoma, 46.2 µM; in the assay on LOX IMVI melanoma, 16.4 µM; with HT29 colon it was 20.7 µM.
For the molecule `Cn1c(=O)c2c(nc3n(C)c(=O)c4ccccc4n23)n(C)c1=O`, the TGI was over 100 µM in the assay with OVCAR-5 ovarian; over 100 µM with CAKI-1 renal; over 100 µM in the assay on KM12 colon; over 100 µM in the assay with SNB-19 CNS; 66.7 µM in the assay on ACHN renal; over 100 µM in the assay with A549 NSCLC. For the same molecule, the TGI in the assay with BT-549 breast was over 100 µM; in the assay on SR leukemia it was 20.1 µM; in the assay with EKVX NSCLC, over 100 µM; with SK-OV-3 ovarian, over 100 µM; in the assay with MDA-N, over 100 µM; with HL-60(TB) leukemia it was over 100 µM. The TGI in the assay on SF-539 CNS, in the assay on PC-3 prostate, in the assay with COLO 205 colon, in the assay on MALME-3M melanoma, in the assay on LOX IMVI melanoma and with HT29 colon was over 100 µM each time.
For `Cc1cc(O)c2c(c1)CC(O)C1=C2C(=O)c2c(O)ccc(OC3CC(O)C(OC4CC(OC5CCC(O)C(C)O5)C(O)C(C)O4)C(C)O3)c2C1=O` (stereo not given), the TGI with OVCAR-5 ovarian came to 12.8 µM; with CAKI-1 renal, 3.23 µM; in the assay on KM12 colon it was 4.46 µM; with SNB-19 CNS it was 3.38 µM; in the assay with ACHN renal, 2.95 µM; in the assay with A549 NSCLC, 7.77 µM. Moreover, the TGI was determined as 3.42 µM in the assay with BT-549 breast; 2.81 µM with SR leukemia; 4.27 µM with EKVX NSCLC; 6.71 µM in the assay with SK-OV-3 ovarian; 3.74 µM in the assay with MDA-N; 1.68 µM in the assay with HL-60(TB) leukemia. For the same molecule, the TGI was found to be 3.62 µM in the assay on SF-539 CNS; 3.96 µM in the assay with PC-3 prostate; 2.95 µM in the assay on COLO 205 colon; 2.1 µM in the assay with MALME-3M melanoma; 2.89 µM with LOX IMVI melanoma; 5.6 µM with HT29 colon.
Take `O=C(c1cccs1)N(Cc1cccnc1)C(=S)N(Cc1cccnc1)C(=O)c1cccs1`: the TGI in the assay on OVCAR-5 ovarian, in the assay with CAKI-1 renal, in the assay with KM12 colon, in the assay on SNB-19 CNS, in the assay on ACHN renal and in the assay with A549 NSCLC was over 100 µM throughout. In addition, the TGI in the assay on BT-549 breast, with SR leukemia, in the assay with EKVX NSCLC, in the assay on SK-OV-3 ovarian, in the assay on MDA-N and with HL-60(TB) leukemia was over 100 µM in each case. For the same molecule, the TGI with SF-539 CNS was 88.7 µM; in the assay on PC-3 prostate, over 100 µM; in the assay with COLO 205 colon, over 100 µM; in the assay on MALME-3M melanoma, over 100 µM; in the assay on LOX IMVI melanoma, over 100 µM; in the assay with HT29 colon, over 100 µM.
Turning to `CCOC(=O)c1ccc(N=c2oc3ccc(OC)cc3cc2-c2nc3ccccc3[nH]2)cc1`, the TGI in the assay with OVCAR-5 ovarian, with CAKI-1 renal, with KM12 colon, in the assay on SNB-19 CNS, in the assay with ACHN renal and in the assay with A549 NSCLC was over 100 µM throughout. For the same molecule, the TGI in the assay on BT-549 breast, in the assay on SR leukemia, with EKVX NSCLC, in the assay on SK-OV-3 ovarian, in the assay on MDA-N and with HL-60(TB) leukemia was over 100 µM in each case. For the same molecule, the TGI in the assay on SF-539 CNS is 6.03 µM; in the assay with PC-3 prostate it was over 100 µM; in the assay with COLO 205 colon, over 100 µM; in the assay on MALME-3M melanoma, over 100 µM; in the assay on LOX IMVI melanoma, over 100 µM; with HT29 colon, over 100 µM.
Turning to `CN(C)CCCN1c2ccccc2CCc2cc([N+](=O)[O-])ccc21`, the TGI in the assay with OVCAR-5 ovarian is 63.9 µM and 31.8 µM; with CAKI-1 renal, 59.7 µM and 32.2 µM; with KM12 colon it was 71 µM and 35.1 µM; in the assay with SNB-19 CNS it was > 100 µM and 31.7 µM; with ACHN renal it was 90.4 µM and 30 µM; with A549 NSCLC it was 70.2 µM and 37.7 µM. The TGI is 45 µM and 31.3 µM with BT-549 breast; 90.6 µM and 44 µM in the assay with SR leukemia; > 100 µM and 37.4 µM in the assay with EKVX NSCLC; > 100 µM and 32.6 µM in the assay with SK-OV-3 ovarian; 45.3 µM and 29.1 µM with MDA-N; 54 µM and 9.46 µM in the assay on HL-60(TB) leukemia. For the same molecule, the TGI in the assay with SF-539 CNS is 74.5 µM and 31.4 µM; with PC-3 prostate, 76.8 µM and 34.3 µM; in the assay on COLO 205 colon, 60.1 µM and 32.4 µM; in the assay with MALME-3M melanoma, 33.8 µM and 32.9 µM; with LOX IMVI melanoma, 37.2 µM and 28.2 µM; in the assay with HT29 colon, 41.6 µM and 32.8 µM. Moreover, the GI50 was 38.7 µM and 17.3 µM with SK-OV-3 ovarian; 19.2 µM and 2.83 µM in the assay on HL-60(TB) leukemia.
As to `COc1ccc(C(SCC(N)C(=O)O)(c2ccc(OC)cc2)c2ccc(OC)cc2)cc1` (stereo not given), the TGI in the assay on OVCAR-5 ovarian is 20.7 µM; in the assay on CAKI-1 renal, over 31.6 µM; in the assay on KM12 colon it was 16.2 µM; in the assay on SNB-19 CNS, 22.6 µM; in the assay with ACHN renal it was 18.6 µM; with A549 NSCLC, over 31.6 µM. Besides, the TGI is 28 µM with BT-549 breast; over 31.6 µM in the assay with SR leukemia; 21.9 µM in the assay with EKVX NSCLC; 72.3 µM with SK-OV-3 ovarian; 12.7 µM in the assay with MDA-N; over 31.6 µM with HL-60(TB) leukemia. The TGI with SF-539 CNS was found to be 17.6 µM; in the assay on PC-3 prostate, 17.9 µM; in the assay with COLO 205 colon, 17 µM; in the assay with MALME-3M melanoma, 16 µM; with LOX IMVI melanoma, 17.2 µM; in the assay on HT29 colon it was 16.7 µM.
`O=c1c2cc(S(=O)(=O)Nc3c(Cl)cccc3Cl)ccc2ncn1NS(=O)(=O)c1ccc2ccccc2c1`: the TGI in the assay on OVCAR-5 ovarian, in the assay on CAKI-1 renal, with KM12 colon, with SNB-19 CNS, in the assay on ACHN renal and with A549 NSCLC was over 62.5 µM each time. The TGI in the assay on BT-549 breast, in the assay with SR leukemia, in the assay with EKVX NSCLC, in the assay on SK-OV-3 ovarian, in the assay on MDA-N and in the assay with HL-60(TB) leukemia was over 62.5 µM throughout. The TGI with SF-539 CNS, in the assay with PC-3 prostate, with COLO 205 colon, in the assay with MALME-3M melanoma, in the assay on LOX IMVI melanoma and in the assay on HT29 colon was over 62.5 µM throughout.
As to `CC(C)NC(=O)OCc1c(COC(=O)NC(C)C)c(-c2ccc[n+](COC(=O)C(C)(C)C)c2)n2c1CCC2`, the TGI in the assay with OVCAR-5 ovarian is over 100 µM; with CAKI-1 renal, 99.7 µM; in the assay on KM12 colon, over 100 µM; with SNB-19 CNS, over 100 µM; in the assay on ACHN renal it was over 100 µM; in the assay on A549 NSCLC, over 100 µM. Besides, the TGI is over 100 µM in the assay with BT-549 breast; over 100 µM with SR leukemia; over 100 µM with EKVX NSCLC; over 100 µM in the assay on SK-OV-3 ovarian; over 100 µM with MDA-N; over 94.9 µM with HL-60(TB) leukemia. The TGI in the assay on SF-539 CNS, in the assay on PC-3 prostate, with COLO 205 colon, in the assay on MALME-3M melanoma, with LOX IMVI melanoma and with HT29 colon was over 100 µM in each case.
